# Reference: ChEMBL document CHEMBL4138065, “Protein-ligand (un)binding kinetics as a new paradigm for drug discovery at the crossroad between experiments and modelling” (Medchemcomm, 2017)
# Target: T1, C5a anaphylatoxin chemotactic receptor 1 (Homo sapiens) (UniProt P21730)
# T1 sequence (whole entry): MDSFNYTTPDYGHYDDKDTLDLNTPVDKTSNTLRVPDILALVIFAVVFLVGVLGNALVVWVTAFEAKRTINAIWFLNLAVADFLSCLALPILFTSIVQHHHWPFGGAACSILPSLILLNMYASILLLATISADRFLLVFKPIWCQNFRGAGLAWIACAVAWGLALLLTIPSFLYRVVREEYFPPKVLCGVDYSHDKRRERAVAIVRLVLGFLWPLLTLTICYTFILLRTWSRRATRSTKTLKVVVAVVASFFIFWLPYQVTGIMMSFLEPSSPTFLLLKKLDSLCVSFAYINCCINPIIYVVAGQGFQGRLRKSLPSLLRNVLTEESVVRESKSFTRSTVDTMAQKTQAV
# Test: Antagonist activity at of C5aR in human macrophages assessed as half life of residence time for maintaining reduction in C5a-induced macrophage response
# Assay type: functional
row,Compound,T1/2
1,CC(=O)N[C@@H](Cc1ccccc1)C(=O)N[C@H]1CCCNC(=O)[C@H](CCCN=C(N)N)NC(=O)[C@H](Cc2c[nH]c3ccccc23)NC(=O)[C@@H](CC2CCCCC2)NC(=O)[C@@H]2CCCN2C1=O,20 h
2,COc1ccc2c(c1)C(C(=O)N(Cc1ccc(N(C)C)cc1)c1ccc(C(C)C)cc1)CCC2 (stereo not drawn),1 to 3 h
3,CCc1cccc(CC)c1-c1cc(OC(C)C)c2c(n1)CCCC2Nc1ccccc1CCO (stereo not drawn),1 to 3 h
